pKi: −log10 of the molar value. Where two headings read alike, the source gives them in different places.
Key:
[1] = molecular target: HCV NS3 protease genotype 3a (3A-1) (Hepatitis C virus genotype 3a, UniProt Q81258); experiment: HCV NS3 protease time-resolved fluorescence (TRF) assay, genotype 3a; assay type: biochemical
Description: (§1) The HCV NS3 protease inhibitory activity of the present compounds may be tested using assays known in the art. One such assay is HCV NS3 protease time-resolved fluorescence (TRF) assay as described below and in International Patent Application Publication No. WO2006/102087. Other examples of such assays are described in e.g., International Patent Application Publication No. WO2005/046712. The assay is performed in a final volume of 100 μl in assay buffer containing 50 mM HEPES, pH 7.5, 150 mM NaCl, 15% glycerol, 0.15% Triton X-100, 10 mM DTT, and 0.1% PEG 8000. NS3 protease is pre-incubated with various concentrations of inhibitors in DMSO for 30 minutes. The reaction is initiated by adding the TRF peptide substrate (final concentration 100 nM). NS3 mediated hydrolysis of the substrate is quenched after 1 hour at room temperature with 100 μl of 500 mM MES, pH 5.5. Product fluorescence is detected using either a VICTOR V2 or FUSION fluorophotometer (Perkin Elmer Life and Analytical Sciences) with excitation at 340 nm and emission at 615 nm with a 400 μs delay. Testing concentrations of different enzyme forms are selected to result in a signal to background ratio (S/B) of 10-30. IC50 values are derived using a standard four-parameter fit to the data. K; values are derived from IC50 values using the following formula, IC50=Ki(1+[S]/Km), Eqn (1), where [S] is the concentration of substrate peptide in the reaction and KM is the Michaelis constant. See Gallinari et al., 1999, Biochem. 38:5620-32; Gallinari et al., 1998, J. Virol. 72:6758-69; Taliani et al., 1996, Anal. Biochem. 240:60-67.
(§2) The HCV NS3 protease inhibitory activity was measured using the protease time-resolved fluorescence (TRF) assay as described below and in International Patent Application Publication No. WO 2006/102087. The assay was performed with HCV genotype 1b (BK) NS3 modified enzyme with a R155K mutation and genotype 3a (3A-1).
(§3) The assay was performed in a final volume of 50 μl in assay buffer containing 50 mM HEPES, pH 7.5, 150 mM NaCl, 15% glycerol, 0.15% TRITON X-100, 10 mM DTT, and 0.1% PEG 8000. NS3 and NS4A protease is pre-incubated with various concentrations of inhibitors in DMSO for 10 minutes. The reaction was initiated by adding the TRF peptide substrate (final concentration 25 nM) and NS3 mediated hydrolysis of the substrate proceeds for 6 hours at room temperature. Product fluorescence is detected using an Envision plate reader (Perkin Elmer) with excitation at 340 nm and emission at 615 nm with a 400 μs delay. Testing concentrations of the enzymes were selected to result in a signal to background ratio (S/B) of 5-20. IC50 values are derived using a standard four-parameter fit to the data.
(§4) NS3 and NS4A protease is pre-incubated with various concentrations of inhibitors in DMSO for 30 minutes. The reaction is initiated by adding the TRF peptide substrate (final concentration 100 nM). NS3 mediated hydrolysis of the substrate is quenched after 1 hour at room temperature with 100 μl of 500 mM MES, pH 5.5. Product fluorescence is detected using either a VICTOR V2 or FUSION fluorophotometer (Perkin Elmer Life and Analytical Sciences) with excitation at 340 nm and emission at 615 nm with a 400 μs delay. Testing concentrations of the enzymes are selected to result in a signal to background ratio (S/B) of 8-30. IC50 values are derived using a standard four-parameter fit to the data. Ki values are derived from IC50 values using the following formula, IC50=Ki(1+[S][…]), Eqn (1), where [S] is the concentration of substrate peptide in the reaction and KM is the Michaelis constant. See Gallinari et al., 1999, Biochem. 38:5620-32; Gallinari et al., 1998, J. Virol. 72:6758-69; and Taliani et al., 1996, Anal. Biochem. 240:60-67. ND means not determined.

[2] = molecular target: T1, HCV genotype 1b (BK) NS3 modified enzyme with a R155K mutation (Hepatitis C virus genotype 1b, UniProt P26663, R1181K); experiment: HCV NS3 protease time-resolved fluorescence (TRF) assay, genotype 1b R155K; assay type: biochemical; conditions: Ki 1b R155K, genotype 1b (BK) NS3 R155K; single value
T1 construct: HCV genotype 1b (BK) NS3 modified enzyme
Description: as §1, §2, §3, §4

For C=C[C@@H]1C[C@]1(NC(=O)[C@@H]1C[C@@H]2CN1C(=O)[C@H](C1CCCC1)NC(=O)O[C@@H]1C[C@H]1CC/C=C/Cc1c(nc3ccccc3c1OC)O2)C(=O)NS(=O)(=O)C1CC1 [Example 11, (1aR,5S,10R,19E,22aR)-5-cyclo pentyl-N-{(1R,2S)-1-[(cyclopropylsulfonyl)carbamoyl]-2-ethenylcyclopropyl}-17-methoxy-3,6-dioxo-1,1a, 3,4,5,6,9,10,18,21,22,22a-dodeca hydro-8H-7,10-methanocyclopropa[18,19][1,10,3,6] dioxadiazacyclononadecino[11,12-b] quinoline-8-carboxamide], the pKi ([1]; Ki 3a) was 7.96 and the pKi [2] was 9.59.
C=C[C@@H]1C[C@]1(NC(=O)[C@@H]1C[C@@H]2CN1C(=O)[C@H](C1CCCC1)NC(=O)O[C@H]1C[C@@H]1CC/C=C/Cc1c(nc3ccccc3c1OC)O2)C(=O)NS(=O)(=O)C1CC1 [Example 12, (1aS,5S,8S,10R,19E,22aS)-5-cyclo pentyl-N-{(1R,2S)-1-[(cyclopropylsulfonyl)carbamoyl]-2-ethenylcyclopropyl}-17-methoxy-3,6-dioxo-1,1a,3,4,5,6,9,10,18,21,22,22a-dodecahydro-8H-7,10-methanocyclopropa[18,19][1,10,3,6] dioxadiazacyclononadecino[11,12-&]quinoline-8-carboxamide] was tested, and the pKi ([1]; Ki 3a) was 6.47 and the pKi [2] was 8.48.
COc1c2c(nc3ccccc13)O[C@@H]1C[C@@H](C(=O)N[C@]3(C(=O)NS(=O)(=O)C4CC4)C[C@H]3C3CC3)N(C1)C(=O)[C@H](C1CCCC1)NC(=O)O[C@@H]1CCC[C@H]1CC/C=C/C2 [Example 13, (3aR,7S,10S,12R,21E,24aS)-7-cyclopentyl-N-[(1S,2R)-2-[(cyclopropylsulfonyl)carbamoyl]-1,1′-bi(cyclopropyl)-2-yl]-19-methoxy-5,8-dioxo-1,2,3,3a,5,6,7,8,11,12,20,23,24,24a-tetradecahydro-10H-9,12-methanocyclopenta[18,19][1,10,3,6] dioxadiazacyclononadecino[11,12-b]quinoline-10-carboxamide] gave a pKi ([1]; Ki 3a) of 7.82 and a pKi [2] of 9.03.
C=C[C@@H]1C[C@]1(NC(=O)[C@@H]1C[C@@H]2CN1C(=O)[C@H](C1CCCC1)NC(=O)O[C@]1(C)CCC[C@H]1CC/C=C/Cc1c(nc3ccccc3c1OCc1ccccc1)O2)C(=O)NS(=O)(=O)C1CC1 [Example 14, (3aR,7S,10S,12R,21E,24aS)-19-(benzyloxy)-7-cyclopentyl-N-{(1R,2S)-1-[(cyclopropylsulfonyl)carbamoyl]-2-ethenylcyclopropyl}-3a-methyl-5,8-dioxo-1,2,3,3a,5,6,7,8,11,12,20,23,24,24a-tetradecahydro-10H-9,12-methanocyclopenta[18,19] [1,10,3,6]dioxadiazacyclononadecino[11,12-b] quinoline-10-carboxamide] was tested, and the pKi ([1]; read-out: Ki 3a) was 7.55 and the pKi [2] was 9.09.
In the case of C=C[C@@H]1C[C@]1(NC(=O)[C@@H]1C[C@@H]2CN1C(=O)[C@H](C1CCCC1)NC(=O)O[C@@H]1CCC[C@H]1CC/C=C/Cc1c(nc3ccccc3c1OCc1ccccc1)O2)C(=O)NS(=O)(=O)C1(C)CC1 [Example 15, (3aR,7S,10S,12R,21E,24aS)-19-(benzyloxy)-7-cyclopentyl-N-[(1H,2S)-2-ethenyl-1-{[(1-methylcyclopropyl)sulfonyl]carbamoyl}cyclopropyl]-5,8-dioxo-1,2,3,3a,5,6,7,8,11,12,20,23,24,24a-tetradecahydro-10H-9,12-methanocyclopenta[18,19] [1,10,3,6]dioxadiazacyclononadecino[11,12-b] quinoline-10-carboxamide], the pKi ([1]; Ki 3a) was 7.44 and the pKi [2] was 9.09.
C=C[C@@H]1C[C@]1(NC(=O)[C@@H]1C[C@@H]2CN1C(=O)[C@H](C1CCCC1)NC(=O)N1CC[C@@H](C1)OCCC/C=C/Cc1c(nc3ccccc3c1OCC)O2)C(=O)NS(=O)(=O)C1CC1 [Example 16, (2R,4S,7S,13S,18E)-7-cyclopentyl-N-{(1R,2S)-1-[(cyclopropylsulfonyl)carbamoyl]-2-ethenylcyclo-propyl}-21-ethoxy-6,9-dioxo-3,4,6,7,8,9,12,13, 15,16,17,20-dodecahydro-2H,11H-2,5:10,13-dimethano[1,14,5,7,10]dioxatriazacyclodocosino [15,16-b]quinoline-4-carboxamide] gave a pKi ([1]; Ki 3a) of 7.15 and a pKi [2] of 8.96.
For C=C[C@@H]1C[C@]1(NC(=O)[C@@H]1C[C@@H]2CN1C(=O)[C@H](C1CCCC1)NC(=O)O[C@@H]1CCC[C@H]1CC/C=C/Cc1c(nc3ccccc3c1O)O2)C(=O)NS(=O)(=O)C1CC1 [Example 17, (3aR,7S,10S,12R,21E,24aS)-7-cyclopentyl-N-{(1R,2S)-1-[(cyclopropylsulfonyl)carbamoyl]-2-ethenylcyclopropyl}-19-hydroxy-5,8-dioxo-1,2,3,3a,5,6,7,8,11,12,20,23,24,24a-tetradecahydro-10H-9,12-methanocyclopenta[18,19][1,10,3,6]dioxadiazacyclononadecino[11,12-b]quinoline-10-carboxamide], the pKi ([1]; Ki 3a) was 9.35 and the pKi [2] was over 10.80.
In the case of C=C[C@@H]1C[C@]1(NC(=O)[C@@H]1C[C@@H]2CN1C(=O)[C@H](C1CCCC1)NC(=O)O[C@@H]1CCC[C@H]1CCC/C=C/Cc1c(nc3ccccc3c1O)O2)C(=O)NS(=O)(=O)C1CC1 [Example 18], the pKi ([1]; Ki 3a) was 7.92 and the pKi [2] was 9.10.
For C=C[C@@H]1C[C@]1(NC(=O)[C@@H]1C[C@@H]2CN1C(=O)[C@H](C1CCCC1)NC(=O)O[C@@]1(C)C[C@@H]1CC/C=C/Cc1c(nc3ccccc3c1O)O2)C(=O)NS(=O)(=O)C1CC1 [Example 20, (1aS,5S,8S,10R,19E,22aS)-5-cyclopentyl-N-{(1R,2S)-1-[(cyclopropylsulfonyl)carbamoyl]-2-ethenylcyclopropyl}-17-hydroxy-1a-methyl-3,6-dioxo-1,1a,3,4,5,6,9,10,18,21,22,22a-dodecahydro-8H-7,10-methanocyclopropa[18,19][1,10,3,6]dioxadiazacyclononadecino[11,12-b]quinoline-8-carboxamide], the pKi ([1]; Ki 3a) was 7.66 and the pKi [2] was 9.26.
With O=C1N[C@@H](C2CCCC2)C(=O)N2C[C@@H](C[C@H]2C(=O)N[C@]2(C(=O)NS(=O)(=O)C3CC3)C[C@H]2C2CC2)Oc2nc3ccccc3c(O)c2C/C=C/CC[C@@H]2CCC[C@H]2O1 [Example 21, (3aR,7S,10S,12R,21E,24aS)-7-cyclopentyl-N-[(1S,2R)-2-[(cyclopropylsulfonyl)carbamoyl]-1,1′-bi(cyclopropyl)-2-yl]-19-hydroxy-5,8-dioxo-1,2,3,3a,5,6,7,8,11,12,20,23,24,24a-tetradecahydro-10H-9,12-methanocyclopenta[18,19][1,10,3,6]dioxadiazacyclononadecino[11,12-b]quinoline-10-carboxamide] the pKi ([1]; Ki 3a) was 8.02 and the pKi [2] was 9.29.

— US9328138B2 (priority 2011, dated 2016)
